{"source": "patent US6683054B1", "about": "“Use of melagatran” (AstraZeneca AB, priority 1999, dated 2004)", "system": "paw oedema", "experiment": "Carrageenan-induced paw oedema in rats (foot volume by water plethysmograph)", "format": "in vivo, rat", "settings": "for % Inhibition after sub-plantar injection, 2 hours after / % Inhibition after sub-plantar injection, 4 hours after: Table 1; for % Inhibition after sub-plantar injection, 2 hours after: 2 hours after carrageenan; for % Inhibition after sub-plantar injection, 4 hours after: 4 hours after carrageenan", "from_the_text": "Groups of five male Charles River CD rats in the weight range 180 to 240 g were used. On their arrival, rats were housed in controlled environment rooms and fed a standard diet for at least one week before use.\nRats were starved overnight before the test, although water was given ad libitum. A mark was made on the ankle joint of each rat, the day before the test, to indicate where the foot volume was to be measured.\nCompounds were made up in the appropriate vehicle for dosing via either the subcutaneous (s.c.), intravenous (i.v.) or oral (p.o.) routes. Melagatran was dosed in water (20 μmol/kg) when given p.o., and in saline, and in cyclodextrin (40%), when given s.c. (0.7 to 2 μmol/kg). Drugs were administered in a dose volume of 5 mL/kg body weight for p.o. dosing or 1 to 2 mL/kg body weight for s.c. dosing. Control rats received the equivalent volume of vehicle.\nA 1% solution of carrageenan in saline was prepared the day prior to the test. The carrageenan was suspended in saline and stirred vigorously on a magnetic stirrer for one hour. It was then stored at 4° C. until required. Thirty minutes after dosing, each rat was injected s.c. in the plantar region of the left hind foot with 0.1 mL of 1% carrageenan.\nTo reduce both discomfort to the rat and variability in the test, rats were housed on wood chip bedding in solid bottom cages. The rats had access to a solution of 5% glucose throughout the duration of the test.\nThe plethysmograph was calibrated using blocks of 2 mL and 4 mL mass before the first, and after the last, measurement at each time point.\nFoot volumes were measured before dosing and up to 6 hours after the sub-plantar injection of carrageenan. The increase in foot volume for each rat was calculated using the difference between the individual foot volume at time zero, and at the various time points. The inhibition afforded by a treatment was expressed as a percentage inhibition of the mean absolute increase in foot volume in treated animals compared to control animals. Indomethacin at 10 mg/kg p.o. was always included as an internal standard. If indomethacin gave less than 30% inhibition at 4 h then the test was considered invalid.", "key": {"[1]": {"settings": "Table 2, 2 μmol/kg s.c. in cyclodextrin"}, "[2]": {"settings": "Table 2, 20 μmol/kg p.o. in water"}, "[3]": {"settings": "Table 3, 2 μmol/kg s.c. in saline"}, "[4]": {"settings": "Table 4, 0.7 μmol/kg s.c. in saline"}, "[5]": {"settings": "Table 4, 1.4 μmol/kg s.c. in saline"}, "[6]": {"settings": "Table 4, 2.0 μmol/kg s.c. in saline"}}}
{"smiles": "COc1ccc2c(c1)c(CC(=O)O)c(C)n2C(=O)c1ccc(Cl)cc1", "note": "[Indomethacin, reference compound]", "values": [{"measurement": "% Inhibition after sub-plantar injection, 2 hours after", "setting": "10 mg/kg p.o.", "result": 43, "unit": "%"}, {"measurement": "% Inhibition after sub-plantar injection, 4 hours after", "setting": "10 mg/kg p.o.", "result": 50, "unit": "%"}, {"measurement": "% Inhibition after 1 hour", "setting": "Table 2, 10 mg/kg p.o.", "result": "−5", "unit": "%"}, {"measurement": "% Inhibition after 2 hours", "setting": "Table 2, 10 mg/kg p.o.", "result": 50, "unit": "%"}, {"measurement": "% Inhibition after 3 hours", "setting": "Table 2, 10 mg/kg p.o.", "result": 39, "unit": "%"}, {"measurement": "% Inhibition after 4 hours", "setting": "Table 2, 10 mg/kg p.o.", "result": 12, "unit": "%"}, {"measurement": "% Inhibition after 1 hour", "setting": "Table 3, 10 mg/kg p.o.", "result": 15, "unit": "%"}, {"measurement": "% Inhibition after 2 hours", "setting": "Table 3, 10 mg/kg p.o.", "result": 2, "unit": "%"}, {"measurement": "% Inhibition after 3 hours", "setting": "Table 3, 10 mg/kg p.o.", "result": 29, "unit": "%"}, {"measurement": "% Inhibition after 4 hours", "setting": "Table 3, 10 mg/kg p.o.", "result": 18, "unit": "%"}]}
{"smiles": "N=C(N)c1ccc(CNC(=O)[C@@H]2CCN2C(=O)[C@H](NCC(=O)O)C2CCCCC2)cc1", "note": "[Melagatran, HOOC—CH2—(R)Cgl-Aze-Pab-H]", "values": [{"measurement": "% Inhibition after 1 hour", "setting": "[1]", "result": 29, "unit": "%"}, {"measurement": "% Inhibition after 2 hours", "setting": "[1]", "result": 13, "unit": "%"}, {"measurement": "% Inhibition after 3 hours", "setting": "[1]", "result": 3, "unit": "%"}, {"measurement": "% Inhibition after 4 hours", "setting": "[1]", "result": 13, "unit": "%"}, {"measurement": "% Inhibition after 1 hour", "setting": "[2]", "result": 14, "unit": "%"}, {"measurement": "% Inhibition after 2 hours", "setting": "[2]", "result": 17, "unit": "%"}, {"measurement": "% Inhibition after 3 hours", "setting": "[2]", "result": "−14", "unit": "%"}, {"measurement": "% Inhibition after 4 hours", "setting": "[2]", "result": "−2", "unit": "%"}, {"measurement": "% Inhibition after 1 hour", "setting": "[3]", "result": 39, "unit": "%"}, {"measurement": "% Inhibition after 2 hours", "setting": "[3]", "result": 8, "unit": "%"}, {"measurement": "% Inhibition after 3 hours", "setting": "[3]", "result": 2, "unit": "%"}, {"measurement": "% Inhibition after 4 hours", "setting": "[3]", "result": "−8", "unit": "%"}, {"measurement": "% Inhibition after 1 hour", "setting": "[4]", "result": 39, "unit": "%"}, {"measurement": "% Inhibition after 1.5 hours", "setting": "[4]", "result": "−1", "unit": "%"}, {"measurement": "% Inhibition after 2 hours", "setting": "[4]", "result": 9, "unit": "%"}, {"measurement": "% Inhibition after 3 hours", "setting": "[4]", "result": 16, "unit": "%"}, {"measurement": "% Inhibition after 1 hour", "setting": "[5]", "result": 65, "unit": "%"}, {"measurement": "% Inhibition after 1.5 hours", "setting": "[5]", "result": 40, "unit": "%"}, {"measurement": "% Inhibition after 2 hours", "setting": "[5]", "result": 5, "unit": "%"}, {"measurement": "% Inhibition after 3 hours", "setting": "[5]", "result": 7, "unit": "%"}, {"measurement": "% Inhibition after 1 hour", "setting": "[6]", "result": 76, "unit": "%"}, {"measurement": "% Inhibition after 1.5 hours", "setting": "[6]", "result": 41, "unit": "%"}, {"measurement": "% Inhibition after 2 hours", "setting": "[6]", "result": 17, "unit": "%"}, {"measurement": "% Inhibition after 3 hours", "setting": "[6]", "result": 19, "unit": "%"}, {"measurement": "inhibition of the oedema", "setting": "in saline, 2 μmol/kg s.c., after 1 h", "result": 39, "unit": "%"}, {"measurement": "inhibition of paw oedema, dose and time dependence (in words)", "setting": "in saline, 0.7, 1.4 and 2 μmol/kg s.c., 1 to 3 hours", "result": "inhibited paw oedema in both a dose dependent, and time dependent, manner"}, {"measurement": "inhibiting paw oedema (in words)", "setting": "orally 20 μmol/kg in water, 30 minutes prior to carrageenan, up to 6 h post dosing", "result": "ineffective"}]}
{"smiles": "C[C@@H]1C[C@H]2[C@@H]3CCC4=CC(=O)C=C[C@]4(C)[C@@]3(F)[C@@H](O)C[C@]2(C)[C@@]1(O)C(=O)CO", "note": "[Dexamethasone, reference compound]", "values": [{"measurement": "% Inhibition after sub-plantar injection, 2 hours after", "setting": "0.03 mg/kg p.o.", "result": 47, "unit": "%"}, {"measurement": "% Inhibition after sub-plantar injection, 4 hours after", "setting": "0.03 mg/kg p.o.", "result": 74, "unit": "%"}, {"measurement": "% Inhibition after sub-plantar injection, 2 hours after", "setting": "0.3 mg/kg p.o.", "result": 51, "unit": "%"}, {"measurement": "% Inhibition after sub-plantar injection, 4 hours after", "setting": "0.3 mg/kg p.o.", "result": 96, "unit": "%"}]}
{"smiles": "CC(C)Cc1ccc(C(C)C(=O)O)cc1", "note": "(stereo not shown) [Ibuprofen, reference compound]", "values": [{"measurement": "% Inhibition after sub-plantar injection, 2 hours after", "setting": "10 mg/kg p.o.", "result": 22, "unit": "%"}, {"measurement": "% Inhibition after sub-plantar injection, 4 hours after", "setting": "10 mg/kg p.o.", "result": 26, "unit": "%"}]}
